Reference: patent publication US5783597A, “2,5-disubstituted thiophenes: inhibitors of 5-lipoxygenase and inducible cyclooxygenase (COX-2) enzymes, composition and use” (Ortho Pharmaceutical Corporation, priority 1997, dated 1998)

Tests used:
LTB4 levels = test: Carrageenan-induced inflammation in subcutaneous chambers in beagle dogs: LTB4 levels in fluid exudate (Procedure IV); type: in vivo; conditions: oral
Description: Carrageenan-Induced Localized Inflammation In Subcutaneous Chambers Implanted In Beagle Dogs
(§1) Sterile perforated teflon chambers (wiffle golf balls) were surgically implanted subcutaneously in the dorsal neck fold of beagle dogs (8-13 kg, mixed sex). After a recovery period of 1 month, a 1 ml sample of fluid exudate from each dog was aspirated from within the chamber using a 1 ml syringe and 20 gauge 1 inch needle inserted through one of the perforations in the ball. Immediately after obtaining the sample, 1.5 ml of 0.33% sterile carrageenan lambda (Sigma Chemical Co., St. Louis, Mo.) was injected into the chamber. Dilutions of the baseline samples were made in saline and analyzed for leukocyte count using a Coulter Counter (6.08-50 μm range). The sample was also analyzed for concentrations of PGE2 and LTB4 by adding 200 μl of sample to 1 ml ethanol and centrifuging the precipitate (1,500 X g, 7 min). The supernatant was aspirated and stored at 0° C. until enzyme linked immunosorbant assays (ELISAs) were performed (ELISA Technologies, Lexington, Ky.). […]
(§2) Drug effects can be evaluated on several important aspects of inflammation using this in-vivo assay. […] Selectivity of a COX inhibitor can be determined by comparing PGE2 inhibition in peripheral blood (COX-1) to that of the inflammatory fluid exudate in the chamber (COX-2).

LTB4 production = test: Ex vivo LTB4 production in peripheral (whole) blood of beagle dogs after oral dosing (Procedure IV)
Description: as §1, with “Ky.). Samples were also drawn at 5 and 24 hours post carrageenan challenge and treated in a similar manner.” for “Ky.).”
as §2

5-lipoxygenase (5-LO) = biological target: T1, 5-lipoxygenase (5-LO) (Rattus norvegicus, UniProt P12527); test: RBL-1 cell 5-lipoxygenase and cyclooxygenase - Whole cells (Procedure II); type: cell-based; conditions: intact RBL-1 cells, 5-HETE; read-out: Procedure II (5-LO) Wh Cell IC50
T1 construct: endogenous in cells; host or cells: intact RBL-1 (rat basophilic leukemia) cells, stimulated with calcium ionophore A23187
T1 sequence (P12527 1-673): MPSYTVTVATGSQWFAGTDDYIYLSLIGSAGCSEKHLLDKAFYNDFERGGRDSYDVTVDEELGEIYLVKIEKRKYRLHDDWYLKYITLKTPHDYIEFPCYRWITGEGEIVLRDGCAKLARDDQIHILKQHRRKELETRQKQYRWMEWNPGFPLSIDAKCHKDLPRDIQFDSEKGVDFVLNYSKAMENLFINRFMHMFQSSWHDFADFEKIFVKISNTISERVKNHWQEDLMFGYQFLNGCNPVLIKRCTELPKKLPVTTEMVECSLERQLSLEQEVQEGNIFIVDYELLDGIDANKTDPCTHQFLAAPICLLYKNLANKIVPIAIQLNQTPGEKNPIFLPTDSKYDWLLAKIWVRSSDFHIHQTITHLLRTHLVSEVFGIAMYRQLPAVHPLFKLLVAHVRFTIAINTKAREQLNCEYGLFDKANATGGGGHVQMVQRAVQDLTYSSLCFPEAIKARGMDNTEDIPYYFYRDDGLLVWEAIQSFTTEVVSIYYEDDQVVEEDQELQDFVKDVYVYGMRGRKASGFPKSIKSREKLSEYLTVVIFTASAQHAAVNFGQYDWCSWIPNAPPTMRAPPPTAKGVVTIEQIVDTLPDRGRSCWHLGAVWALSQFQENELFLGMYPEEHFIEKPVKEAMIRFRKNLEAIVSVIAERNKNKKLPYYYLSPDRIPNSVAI
Description: RBL-1 Cell 5-Lipoxygenase and cyclooxygenase - Whole cells
The ability to inhibit 5-LO and CO in intact RBL-1 cells was also evaluated. […] Cells were collected by centrifugation, washed once in HBSS, and resuspended at a concentration of 1×10^5 cells/mL. Cells were incubated in the presence of vehicle or drug then centrifuged at 800×g for 10 minutes at 4° C. The supernatant was removed by aspiration and the cells were resuspended in 0.5 mL of HBSS. […] The conversion of M to 5-LO products was initiated by the addition of 10 μL (50 uCi) of 1-^14 C-AA. Products were isolated by acidification and extraction, followed by thin layer chromatography analysis as described above. Radioactive areas corresponding to authentic 5-LO (5-HETE) and CO (PGD2) products were quantitated by the Bioscan 2000 Imaging System.

- IC50 (5-lipoxygenase (5-LO)): 0.46 µM
Structure (SMILES): CS(=O)(=O)Nc1ccc(Oc2ccc(F)cc2)s1 [Example 1]
- ED50 (LTB4 levels; Canis lupus familiaris, inflammatory chamber exudate, read-out: ED50 for inhibition of fluid LTB4 levels): < 0.01 mg/kg
- inhibition of LTB4 levels measured in the fluid (LTB4 levels; inflammatory chambers): dose related inhibition
- ED50 (LTB4 production; Canis lupus familiaris, 5 h, five hours after oral administration, ex vivo, read-out: inhibition of peripheral LTB4 production, IC50): 4.4 mg/kg
- inhibition of LTB4 production in whole blood (LTB4 production; at 24 hours following dosing, oral): No inhibition of LTB4 production in whole blood was detected
